Data on one compound can be found in patent publication US9073863B2, “Cyanoquinoline compounds having activity in correcting mutant-CFTR processing and increasing ion transport and uses thereof” (The Regents of the University of California, priority 2011, dated 2015).

Broadly, the EC50 is the concentration that produces a half-maximal response.

Type in all cases: cell-based
For test [1], the target named is T1, ΔF508-CFTR (Homo sapiens, UniProt P13569, DEL508-508).
T1 construct: expressed in transfected cells; host or cells: Fischer rat thyroid (FRT) epithelial cells, stably transfected
The test can be described thus: Short-circuit current (apical membrane chloride current) corrector assay in ΔF508-CFTR expressing FRT cells. As for the experimental part:
(§1) Short-circuit current measurements. ΔF508-CFTR-expressing FRT cells were cultured on Snapwell inserts for 7-9 days. For corrector testing, test compounds were incubated with FRT cells for 18-24 h at 37° C. prior to measurements. For potentiator testing, the FRT cells were incubated for 18-24 h at 27° C. prior to measurements. The basolateral solution contained 130 mM NaCl, 2.7 mM KCl, 1.5 mM KH2PO4, 1 mM CaCl2, 0.5 mM MgCl2, 10 mM glucose, and 10 mM Na-HEPES (pH 7.3). In the apical bathing solution, 65 mM NaCl was replaced by Na gluconate, and CaCl2 was increased to 2 mM. Solutions were bubbled with air and maintained at 37° C. The basolateral membrane was permeabilized with 250 μg/ml amphotericin B. Hemichambers were connected to a DVC-1000 voltage clamp (World Precision Instruments Inc.) via Ag/AgCl electrodes and 1 M KCl agar bridges for recording of short-circuit current.
Short-circuit current was measured as a definitive electrophysiological assay to verify Compound 22 corrector action. Apical membrane chloride current was measured in ΔF508-CFTR expressing FRT cells after basolateral membrane permeabilization and in the presence of a transepithelial chloride gradient (apical, 65 mM; basolateral, 130 mM). In FIG. 3C, incubation with Corr-4a (5 μM) is shown as reference (right). Forskolin (20 μM), genistein (50 μM) and CFTRinh-172 (10 μM) were added where indicated. […] FIG. 3D summarizes Compound 22 concentration dependence data from short-circuit current studies. […]
Short-circuit current was measured in an electrophysiology assay to verify corrector activity. Apical membrane chloride current was measured in ΔF508-CFTR expressing FRT cells after basolateral membrane permeabilization and in the presence of a transepithelial chloride gradient. […] To assay potentiator activity apical membrane chloride current was measured after low-temperature rescue, in response to CP-3 addition. CP-3 concentration-dependent increases in apical membrane current were measured in the presence of 5 μM forskolin. […]

Test [2] addresses T1, ΔF508-CFTR. Kind of test: CFTR immunoblot of ΔF508-CFTR expressing FRT cells. The note with it: 24 h at 37° C. How it is done: CFTR Immunoblot. DF508-CFTR expressing FRT cells grown on 6-well plates were treated with Corr-4a ([…]), Compound 22 […] or negative control at 37° C. for 24 h. After treatment, cells were washed with PBS and lysed in 20 mM Hepes (pH 7), 150 mM NaCl, 1 mM EGTA and 1% Igepal containing Complete Protease Inhibitor Cocktail (Roche). After pre-clearing, lysates were subjected to SDS-PAGE and analyzed by immunoblot. Proteins were immunodetected using a mouse monoclonal anti-CFTR antibody (M3A7, Millipore) followed by HRP-conjugated anti-mouse IgG, and visualized by chemiluminescence (ECL Plus, Amersham).
The action of Compound 22 as corrector of defective ΔF508-CFTR cellular processing was verified by CFTR immunoblot analysis (FIG. 4C). Wildtype CFTR was detected as a strong band at 170 kDa (band C), corresponding to complex glycosylated CFTR. […] Band B, which corresponds to core-glycosylated ΔF508-CFTR, was also seen.
For orientation: In western blotting, separated proteins are transferred to a membrane and probed.

Test [3] concerns the target T1, ΔF508-CFTR. The test can be described thus: Corrector assay by YFP/iodide fluorescence quenching in ΔF508-CFTR expressing A549 cells. To be noted: 24 h at 37° C. As for the experimental part: FIGS. 6A and 6B show graphs of Compound 22 activity in G551D-CFTR expressing FRT cells and DF508-CFTR expressing […] cells, according to embodiments of the present disclosure. […] (top) or 27° C. (bottom) for 24 h prior to iodide influx measurement, according to embodiments of the present disclosure. Graphs are representative of 3 sets of measurements.
To test whether Compound 22 is active in a different cell background, potentiator and corrector assays were performed in ΔF508-CFTR transfected A549 cells, which are of human lung epithelial origin. […] Apparent EC50 for Compound 22 potentiator activity was about 8 μM (FIG. 6B). […] (FIG. 6C, top). Compound 22 was further tested for corrector activity in A549 cells under the low-temperature synergy condition; however, DF508-CFTR was fully activated by forskolin ([…]) and genistein ([…]) in this cell model (FIG. 6C, bottom).

Test [4] has as its target T1, ΔF508-CFTR. The test can be described thus: Short-circuit current potentiator assay in ΔF508-CFTR expressing FRT cells after low-temperature rescue. The note with it: 27° C. for 24 h prior to measurement, in the presence of forskolin; read-out: Apparent EC50 for potentiator activity as measured by short-circuit current. How it is done:
as §1, with “The basolateral membrane was permeabilized with 250 μg/ml amphotericin B. Hemichambers were connected to a DVC-1000 voltage clamp (World Precision Instruments Inc.) via Ag/AgCl electrodes and 1 M KCl agar bridges for recording of short-circuit current.” left out
Short-circuit current measurements were performed to further characterize Compound 22 potentiator activity in which apical membrane chloride current was measured in ΔF508-CFTR expressing FRT cells, after low-temperature rescue, in response to Compound 22 additions. […]
Short-circuit current was measured in an electrophysiology assay to verify corrector activity. Apical membrane chloride current was measured in ΔF508-CFTR expressing FRT cells after basolateral membrane permeabilization and in the presence of a transepithelial chloride gradient. […] To assay potentiator activity apical membrane chloride current was measured after low-temperature rescue, in response to CP-3 addition. […]

Molecules are shown by their SMILES.

T1 sequence (P13569 with tags, fused parts or gaps DEL508-508): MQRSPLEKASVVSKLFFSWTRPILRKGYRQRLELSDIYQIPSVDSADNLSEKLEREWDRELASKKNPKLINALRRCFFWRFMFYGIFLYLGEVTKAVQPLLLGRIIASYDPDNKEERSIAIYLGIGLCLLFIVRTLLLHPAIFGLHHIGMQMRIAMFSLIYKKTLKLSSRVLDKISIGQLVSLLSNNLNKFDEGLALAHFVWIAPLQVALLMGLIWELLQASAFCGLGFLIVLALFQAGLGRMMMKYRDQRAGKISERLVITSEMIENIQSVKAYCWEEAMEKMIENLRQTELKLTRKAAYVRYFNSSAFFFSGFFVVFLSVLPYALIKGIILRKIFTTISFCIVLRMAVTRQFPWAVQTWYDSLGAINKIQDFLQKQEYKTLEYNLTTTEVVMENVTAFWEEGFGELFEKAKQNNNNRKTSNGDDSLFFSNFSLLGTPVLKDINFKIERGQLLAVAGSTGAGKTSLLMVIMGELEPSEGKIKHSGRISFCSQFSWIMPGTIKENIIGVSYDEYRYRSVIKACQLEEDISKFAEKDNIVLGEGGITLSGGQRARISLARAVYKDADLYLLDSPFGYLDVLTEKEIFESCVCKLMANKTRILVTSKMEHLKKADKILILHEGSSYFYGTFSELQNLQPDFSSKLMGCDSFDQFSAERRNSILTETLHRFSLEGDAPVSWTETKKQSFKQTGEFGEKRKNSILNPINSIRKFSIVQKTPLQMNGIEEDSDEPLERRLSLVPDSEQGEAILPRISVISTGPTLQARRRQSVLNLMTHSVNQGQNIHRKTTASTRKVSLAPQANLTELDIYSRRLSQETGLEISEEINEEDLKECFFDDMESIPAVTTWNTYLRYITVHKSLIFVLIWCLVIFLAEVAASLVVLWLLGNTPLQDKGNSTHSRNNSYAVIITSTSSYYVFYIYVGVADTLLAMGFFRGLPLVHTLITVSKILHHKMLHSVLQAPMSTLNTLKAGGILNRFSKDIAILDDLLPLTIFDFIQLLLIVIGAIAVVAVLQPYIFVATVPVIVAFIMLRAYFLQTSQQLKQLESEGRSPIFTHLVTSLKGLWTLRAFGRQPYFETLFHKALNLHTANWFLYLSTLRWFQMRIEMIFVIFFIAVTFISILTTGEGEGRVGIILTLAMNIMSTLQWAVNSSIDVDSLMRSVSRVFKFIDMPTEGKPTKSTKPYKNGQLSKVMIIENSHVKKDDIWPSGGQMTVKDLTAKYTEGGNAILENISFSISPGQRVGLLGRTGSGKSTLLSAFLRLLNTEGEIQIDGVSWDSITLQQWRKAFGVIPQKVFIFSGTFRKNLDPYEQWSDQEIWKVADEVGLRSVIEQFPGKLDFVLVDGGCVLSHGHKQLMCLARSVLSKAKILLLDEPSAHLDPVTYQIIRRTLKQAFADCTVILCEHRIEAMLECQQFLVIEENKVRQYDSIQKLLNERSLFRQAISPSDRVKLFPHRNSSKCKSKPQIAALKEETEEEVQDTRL

For the compound `COc1cccc(C(=O)NCCNc2nc3cc(C)cc(C)c3cc2C#N)c1` [Compound 22, N-(2-((3-Cyano-5,7-dimethylquinolin-2-yl)amino)ethyl)-3-methoxybenzamide], on ΔF508-CFTR [1] (5 and 10 μM, 18-24 h incubation), the “increase in apical membrane current (corrector)” value is “comparable to that conferred by 5 μM Corr-4a”. Besides, the “corrector and potentiator maximum efficacy” value on ΔF508-CFTR [1] (electrophysiological analysis) is “comparable to those of the bithiazole Corr-4a and the flavone genistein”. The “complex glycosylated CFTR (band C) in immunoblot” value on ΔF508-CFTR [2] is reported as “band C was visualized”. At ΔF508-CFTR [3], the “corrector activity in A549 cells, in words” value was “little corrector activity compared to Corr-4a”. Further, at ΔF508-CFTR [4], the EC50 is roughly 10 µM.
